Source: patent publication US10973826B2, “Antibody conjugates comprising toll-like receptor agonist” (Novartis AG, priority 2015, dated 2021)

Assay: In vitro stability of conjugates in mouse serum (LC-MS: succinimide ring hydrolysis, deconjugation)
Type: in vitro ADME
Conditions: conjugates of the compound with anti-HER2 mAb2
Description: The stability of the bond formed between maleimide containing payloads and Cys residues of the antibody is enhanced by the hydrolysis of the succinimide ring formed in this reaction. The effects of succinimide ring hydrolysis on the stability of antibody conjugates prepared with agonist compounds of the invention were studied after in vitro incubation in mouse serum. Mass changes resulting from payload deconjugation and the hydrolysis of the succinimide ring of maleimide payloads conjugated to antibodies were monitored by LC-MS. The hydrolysis of the succinimide ring has been reported to be stimulated by certain conditions such as high pH, high temperature, or high salts (J. Am. Chem. Soc. 1955, 77: 3922; Biochemistry 1976, 15: 2836; Biochem. J. 1979, 179: 191-197; J Pharm Sci. 1984, 73:1767-1771; Bioorg. Med. Chem. Lett. 17: 6286-6289, 2007). To probe the in vitro stability of conjugates, anti-HER2 antibody mAb2 conjugates were incubated at 37° C. in 50-70% mouse serum. […] The light chain, heavy chain Fab, and heavy chain Fc fragments were then analyzed by ESI-MS. The relative populations of deconjugated antibody, conjugates with attached payload with hydrolyzed succinimide ring, and conjugates with attached payload with intact succinimide ring, were calculated from the relative MS intensities of the corresponding conjugate species. […]

Row | Compound | conjugate stability (deconjugation, succinimide ring hydrolysis)
1 | CCCCCNc1nc(N)nc2ccn(Cc3ccc(CN4CCN(CCN5C(=O)C=CC5=O)CC4)cc3OC)c12 [Compound C-5, 1-(2-(4-(4-((2-amino-4-(pentylamino)-5H-pyrrolo[3,2-d]pyrimidin-5-yl)methyl)-3-methoxybenzyl)piperazin-1-yl)ethyl)-1H-pyrrole-2,5-dione] | improved conjugate stability
2 | CCCCCNc1nc(N)nc2ccn(Cc3ccc(CN4CCN(C(=O)CCOCCOCCNC(=O)CN5C(=O)C=CC5=O)CC4)cc3OC)c12 [Compound C-21, N-(2-(2-(3-(4-(4-((2-amino-4-(pentylamino)-5H-pyrrolo[3,2-d]pyrimidin-5-yl)methyl)-3-methoxybenzyl)piperazin-1-yl)-3-oxopropoxy)ethoxy)ethyl)-2-(2,5-dioxo-2,5-dihydro-1H-pyrrol-1-yl)acetamide] | improved conjugate stability
